Measured values from US20250296971A1, “GASTRIC INHIBITORY PEPTIDE RECEPTOR LIGANDS” (priority 2021, published 2025).
*1 amine or outer side, *2 acyl side, *3 side chain or, on linkers, in order; H or OH if unused. Where a SMILES comes first, the peptide text is derived from it. Bridges are numbered along the chain shown (N, C = ends). [ ]: non-standard residue; d: D form. Trp(5-Cl) = N[C@@H](Cc1c[nH]c2ccc(Cl)cc12)C(=O)O; Pyridine(2,6-diCH2) = c1cc(C[*:1])nc(C[*:2])c1; mXylylene = c1cc(C[*:1])cc(C[*:2])c1; N(CH2CH2COOH)Gly = O=C(O)CCNCC(=O)O; Hyp = O=C(O)[C@@H]1C[C@@H](O)CN1; Suc = O=C(CCC(=O)[*:2])[*:1]; hCys = N[C@@H](CCS)C(=O)O; hSer = N[C@@H](CCO)C(=O)O; Ac5c = NC1(C(=O)O)CCCC1; Thp = NC1(C(=O)O)CCOCC1; Aib = CC(C)(N)C(=O)O

Target: T1, GIPR (CHO-K1-hGIPR cells) (Homo sapiens, UniProt P48546)
T1 construct: host or cells: CHO-K1
T1 sequence (P48546 22-466): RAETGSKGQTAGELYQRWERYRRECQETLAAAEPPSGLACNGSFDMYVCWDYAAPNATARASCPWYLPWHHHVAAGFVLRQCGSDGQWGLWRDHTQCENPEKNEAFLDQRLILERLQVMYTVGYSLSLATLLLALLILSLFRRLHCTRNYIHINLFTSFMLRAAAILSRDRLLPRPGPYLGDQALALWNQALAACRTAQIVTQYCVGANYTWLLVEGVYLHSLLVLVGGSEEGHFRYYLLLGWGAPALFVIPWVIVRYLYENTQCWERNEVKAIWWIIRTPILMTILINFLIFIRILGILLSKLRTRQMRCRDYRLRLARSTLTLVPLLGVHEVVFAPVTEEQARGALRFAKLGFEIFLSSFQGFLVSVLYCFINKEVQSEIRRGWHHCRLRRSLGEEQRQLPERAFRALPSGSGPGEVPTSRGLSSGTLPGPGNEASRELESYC
Assay: FACS binding assay
Settings: competition with 20 nM GIP-057, 4° C., 1 hour, read-out: pIC50 Category (converted)
Outline: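 Read-out: flow cytometric median fluorescence intensity, APC/Cy5 channel, plotted vs peptide conc.; 4PL fit → EC50/pEC50 or IC50/pIC50. Cells: CHO-K1-hGIPR, Accutase-detached, 500.000/mL in PBS + 1% FCS. Detection: APC-streptavidin 1 μg/mL, 30 min, on ice.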

IC50, < 10 nM:
CC[C@H](C)[C@@H]1NC(=O)[C@H](CC(C)C)NC(=O)C2(CCOCC2)NC(=O)[C@@H](NC(=O)[C@@H](CC(C)C)NC(=O)[C@H](CCC(=O)O)NC(=O)[C@@H]2C[C@@H](O)CN2C(=O)[C@H](Cc2c[nH]c3ccc(Cl)cc23)NC(=O)[C@H](Cc2c[nH]c3ccccc23)NC(=O)[C@H](CC(N)=O)NC(C)=O)CSCc2cccc(n2)CSC[C@@H](C(N)=O)NC1=O [GIP-190, Ac-Asn-Trp-5Clw-Hyp-Glu-leu-[Cys(2Lut)-Thp-Leu-Ile-Cys]-NH2] (Ac-NW[Trp(5-Cl)][Hyp]E[dL]C[Thp]LIC-NH2; linker 7-11 via Pyridine(2,6-diCH2))
CC[C@H](C)[C@@H]1NC(=O)[C@H](CC(C)C)NC(=O)C2(CCOCC2)NC(=O)[C@@H](NC(=O)[C@@H](CC(C)C)NC(=O)[C@H](CCC(=O)O)NC(=O)[C@@H]2C[C@@H](O)CN2C(=O)[C@H](Cc2c[nH]c3ccc(Cl)cc23)NC(=O)[C@H](Cc2c[nH]c3ccccc23)NC(=O)[C@H](CCC(=O)O)NC(C)=O)CSCc2cccc(n2)CSC[C@@H](C(N)=O)NC1=O [GIP-191, Ac-Asn-Trp-5Clw-Hyp-Glu-leu-[Cys(2Lut)-Thp-Leu-Ile-Cys]-NH2] (Ac-EW[Trp(5-Cl)][Hyp]E[dL]C[Thp]LIC-NH2; linker 7-11 via Pyridine(2,6-diCH2))
CC[C@H](C)[C@@H]1NC(=O)[C@H](CC(C)C)NC(=O)C2(CCOCC2)NC(=O)[C@@H](NC(=O)[C@@H](CC(C)C)NC(=O)[C@H](CC(=O)O)NC(=O)[C@@H]2C[C@@H](O)CN2C(=O)[C@H](Cc2c[nH]c3ccc(Cl)cc23)NC(=O)[C@H](Cc2c[nH]c3ccccc23)NC(=O)[C@H](CC(=O)O)NC(C)=O)CSCc2cccc(n2)CSC[C@@H](C(N)=O)NC1=O [GIP-192, Ac-Asp-Trp-5Clw-Hyp-Asp-leu-[Cys(2Lut)-Thp-Leu-Ile-Cys]-NH2] (Ac-DW[Trp(5-Cl)][Hyp]D[dL]C[Thp]LIC-NH2; linker 7-11 via Pyridine(2,6-diCH2))
CC[C@H](C)[C@@H]1NC(=O)[C@H](CC(C)C)NC(=O)C2(CCOCC2)NC(=O)[C@@H](NC(=O)[C@@H](CC(C)C)NC(=O)[C@H](CCC(N)=O)NC(=O)[C@@H]2C[C@@H](O)CN2C(=O)[C@H](Cc2c[nH]c3ccc(Cl)cc23)NC(=O)[C@H](Cc2c[nH]c3ccccc23)NC(=O)[C@H](CC(=O)O)NC(C)=O)CSCc2cccc(n2)CSC[C@@H](C(N)=O)NC1=O [GIP-193, Ac-Asp-Trp-5Clw-Hyp-Gln-leu-[Cys(2Lut)-Thp-Leu-Ile-Cys]-NH2] (Ac-DW[Trp(5-Cl)][Hyp]Q[dL]C[Thp]LIC-NH2; linker 7-11 via Pyridine(2,6-diCH2))
CC[C@H](C)[C@@H]1NC(=O)[C@H](CC(C)C)NC(=O)C2(CCOCC2)NC(=O)[C@@H](NC(=O)[C@@H](CC(C)C)NC(=O)[C@H](CCC(=O)O)NC(=O)[C@@H]2C[C@@H](O)CN2C(=O)[C@H](Cc2c[nH]c3ccc(Cl)cc23)NC(=O)[C@H](Cc2c[nH]c3ccccc23)NC(=O)[C@H](CCO)NC(C)=O)CSCc2cccc(n2)CSC[C@@H](C(N)=O)NC1=O [GIP-195, Ac-Hse-Trp-5Clw-Hyp-Glu-leu-[Cys(2Lut)-Thp-Leu-Ile-Cys]-NH2] (Ac-[hSer]W[Trp(5-Cl)][Hyp]E[dL]C[Thp]LIC-NH2; linker 7-11 via Pyridine(2,6-diCH2))
CC[C@H](C)[C@@H]1NC(=O)[C@H](CC(C)C)NC(=O)C2(CCOCC2)NC(=O)[C@@H](NC(=O)[C@@H](CC(C)C)NC(=O)[C@H](CCC(=O)O)NC(=O)CN(CCC(=O)O)C(=O)[C@H](Cc2c[nH]c3ccc(Cl)cc23)NC(=O)[C@H](Cc2c[nH]c3ccccc23)NC(=O)[C@H](CC(=O)O)NC(C)=O)CSCc2cccc(n2)CSC[C@@H](C(N)=O)NC1=O [GIP-196, Ac-Asp-Trp-5Clw-Nglu-Glu-leu-[Cys(2Lut)-Thp-Leu-Ile-Cys]-NH2] (Ac-DW[Trp(5-Cl)][N(CH2CH2COOH)Gly]E[dL]C[Thp]LIC-NH2; linker 7-11 via Pyridine(2,6-diCH2))
CC[C@H](C)[C@@H]1NC(=O)[C@H](CC(C)C)NC(=O)C(C)(C)NC(=O)[C@@H](NC(=O)[C@@H](CC(C)C)NC(=O)[C@H](CCC(=O)O)NC(=O)[C@@H]2CCCN2C(=O)[C@H](Cc2c[nH]c3ccc(Cl)cc23)NC(=O)[C@H](Cc2c[nH]c3ccccc23)NC(=O)CCC(=O)O)CSCc2cccc(c2)CSC[C@@H](C(N)=O)NC1=O [GIP-198, HO-Succinyl-Trp-5Clw-Pro-Glu-leu-[Cys(3MeBn)-Aib-Leu-Ile-Cys]-NH2] (Suc-W[Trp(5-Cl)]PE[dL]C[Aib]LIC-NH2; linker 6-10 via mXylylene)
CC[C@H](C)[C@@H]1NC(=O)[C@H](CC(C)C)NC(=O)C2(CCOCC2)NC(=O)[C@@H](NC(=O)[C@@H](CC(C)C)NC(=O)[C@H](CCC(=O)O)NC(=O)[C@@H]2CCCN2C(=O)[C@H](Cc2c[nH]c3ccc(Cl)cc23)NC(=O)[C@H](Cc2c[nH]c3ccccc23)NC(=O)CCC(=O)O)CSCc2cccc(c2)CSC[C@@H](C(N)=O)NC1=O [GIP-199] (Suc-W[Trp(5-Cl)]PE[dL]C[Thp]LIC-NH2; linker 6-10 via mXylylene)
CC[C@H](C)[C@@H]1NC(=O)[C@H](CC(C)C)NC(=O)C2(CCOCC2)NC(=O)[C@@H](NC(=O)[C@@H](CC(C)C)NC(=O)[C@H](CCC(=O)O)NC(=O)[C@@H]2C[C@@H](O)CN2C(=O)[C@H](Cc2c[nH]c3ccc(Cl)cc23)NC(=O)[C@H](Cc2c[nH]c3ccccc23)NC(=O)[C@H](CC(=O)O)NC(C)=O)CCSCc2cccc(n2)CSC[C@@H](C(N)=O)NC1=O [GIP-200, Ac-Asp-Trp-5Clw-Hyp-Glu-leu-[Hcy(2Lut)-Thp-Leu-Ile-Cys]-NH2] (Ac-DW[Trp(5-Cl)][Hyp]E[dL][hCys][Thp]LIC-NH2; linker 7-11 via Pyridine(2,6-diCH2))
CC[C@H](C)[C@@H]1NC(=O)[C@H](CC(C)C)NC(=O)C2(CCOCC2)NC(=O)[C@@H](NC(=O)[C@@H](CC(C)C)NC(=O)[C@H](CCC(=O)O)NC(=O)[C@@H]2C[C@@H](O)CN2C(=O)[C@H](Cc2c[nH]c3ccc(Cl)cc23)NC(=O)[C@H](Cc2c[nH]c3ccccc23)NC(=O)[C@H](CC(=O)O)NC(C)=O)CSCc2cccc(n2)CSCC[C@@H](C(N)=O)NC1=O [GIP-201, Ac-Asp-Trp-5Clw-Hyp-Glu-leu-[Cys(2Lut)-Thp-Leu-Ile-Hcy]-NH2] (Ac-DW[Trp(5-Cl)][Hyp]E[dL]C[Thp]LI[hCys]-NH2; linker 7-11 via Pyridine(2,6-diCH2))
CC[C@H](C)[C@@H]1NC(=O)[C@H](CC(C)C)NC(=O)C2(CCOCC2)NC(=O)[C@@H](NC(=O)[C@@H](CC(C)C)NC(=O)[C@H](CCC(=O)O)NC(=O)[C@@H]2C[C@@H](O)CN2C(=O)[C@H](Cc2c[nH]c3ccc(Cl)cc23)NC(=O)[C@H](Cc2c[nH]c3ccccc23)NC(=O)[C@H](CC(=O)O)NC(C)=O)CCSCc2cccc(n2)CSCC[C@@H](C(N)=O)NC1=O [GIP-202, Ac-Asp-Trp-5Clw-Hyp-Glu-leu-[Hcy(2Lut)-Thp-Leu-Ile-Hcy]-NH2] (Ac-DW[Trp(5-Cl)][Hyp]E[dL][hCys][Thp]LI[hCys]-NH2; linker 7-11 via Pyridine(2,6-diCH2))
CC[C@H](C)[C@@H]1NC(=O)[C@H](CC(C)C)NC(=O)C2(CCCC2)NC(=O)[C@@H](NC(=O)[C@@H](CC(C)C)NC(=O)[C@H](CCC(=O)O)NC(=O)[C@@H]2C[C@@H](O)CN2C(=O)[C@H](Cc2c[nH]c3ccc(Cl)cc23)NC(=O)[C@H](Cc2c[nH]c3ccccc23)NC(=O)[C@H](CC(=O)O)NC(C)=O)CSCc2cccc(n2)CSC[C@@H](C(N)=O)NC1=O [GIP-203, Ac-Asp-Trp-5Clw-Hyp-Glu-leu-[Cys(2Lut)-Eca-Leu-Ile-Cys]-NH2] (Ac-DW[Trp(5-Cl)][Hyp]E[dL]C[Ac5c]LIC-NH2; linker 7-11 via Pyridine(2,6-diCH2))
CC[C@H](C)[C@@H]1NC(=O)[C@H](CC(C)C)NC(=O)C2(CCOCC2)NC(=O)[C@@H](NC(=O)[C@@H](CC(C)C)NC(=O)[C@H](CCC(=O)O)NC(=O)[C@@H]2C[C@@H](O)CN2C(=O)[C@H](Cc2c[nH]c3ccc(Cl)cc23)NC(=O)[C@H](Cc2c[nH]c3ccccc23)NC(=O)[C@H](CCC(N)=O)NC(C)=O)CSCc2cccc(n2)CSC[C@@H](C(N)=O)NC1=O [GIP-204, Ac-Gln-Trp-5Clw-Hyp-Glu-leu-[Cys(2Lut)-Thp-Leu-Ile-Cys]-NH2] (Ac-QW[Trp(5-Cl)][Hyp]E[dL]C[Thp]LIC-NH2; linker 7-11 via Pyridine(2,6-diCH2))
CC[C@H](C)[C@@H]1NC(=O)[C@H](CC(C)C)NC(=O)C2(CCOCC2)NC(=O)[C@@H](NC(=O)[C@@H](CC(C)C)NC(=O)[C@H](CC(N)=O)NC(=O)[C@@H]2C[C@@H](O)CN2C(=O)[C@H](Cc2c[nH]c3ccc(Cl)cc23)NC(=O)[C@H](Cc2c[nH]c3ccccc23)NC(=O)[C@H](CC(=O)O)NC(C)=O)CSCc2cccc(n2)CSC[C@@H](C(N)=O)NC1=O [GIP-205, Ac-Asp-Trp-5Clw-Hyp-Asn-leu-[Cys(2Lut)-Thp-Leu-Ile-Cys]-NH2] (Ac-DW[Trp(5-Cl)][Hyp]N[dL]C[Thp]LIC-NH2; linker 7-11 via Pyridine(2,6-diCH2))
